Data: US8865756B2, “Inhibitors of HCV NS5A” (Presidio Pharmaceuticals, Inc., priority 2008, dated 2014)

test system: HCV 1b_Huh-Luc/Neo-ET cell line persistently expressing a bicistronic genotype 1b replicon in Huh 7 cells; assay: HCV replicon assay (luciferase readout); assay type: cell-based; settings: Hepatitis C virus, Huh-7, 72 h, read-out: Inhibition of HCV genotype 1b
Outline: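 Huh 7 cells carrying a genotype 1b luciferase/neo replicon treated in triplicate for 72 h, then luciferase activity measured. Signal expressed as % of control; EC50 from four-parameter logistic fit, determined several times.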

| SMILES | EC50 |
| --- | --- |
| COC(=O)N[C@H](C(=O)N1CCCC[C@H]1c1ncc(-c2ccc(C#Cc3ccc4nc([C@@H]5CCCN5C(=O)[C@@H](NC(=O)OC)C(C)C)[nH]c4c3)cc2)[nH]1)C(C)C [Compound 1032] | < 1 nM |
| CC(C)(C)OC(=O)N[C@@H](C(=O)N1CCC[C@H]1C(=O)Nc1ccc(C#Cc2cnc([C@@H]3CCCN3C(=O)[C@H](NC(=O)OC(C)(C)C)c3ccccc3)[nH]2)cc1)c1ccccc1 [Compound 115] | < 1 nM |
| O=C([C@@H](c1ccccc1)N1CCCCC1)N1CCC[C@H]1c1ncc(-c2ccc(C#Cc3ccc(-c4cnc([C@@H]5CCCN5C(=O)[C@@H](c5ccccc5)N5CCCCC5)[nH]4)cc3)cc2)[nH]1 [Compound 205] | < 1 nM |
| COC(=O)N[C@@H](C(=O)N1CCC[C@H]1c1ncc(C#Cc2ccc(-c3ccc(-c4cnc([C@@H]5CCCN5C(=O)[C@H](NC(=O)OC(C)(C)C)c5ccccc5)[nH]4)cc3)cc2)[nH]1)c1ccccc1 [Compound 753] | < 1 nM |
| COC(=O)N[C@@H](C(=O)N1CCC[C@H]1c1ncc(-c2ccc(C#Cc3ccc(-c4cnc([C@@H]5CCCN5C(=O)[C@H](NC(=O)N5CCC[C@@H]5C)c5ccccc5)[nH]4)cc3)cc2)[nH]1)c1ccccc1 [Compound 261] | < 1 nM |
| COC(=O)N[C@H](C(=O)N1CCC[C@H]1c1ncc(-c2ccc(C#Cc3ccc(-c4cnc([C@@H]5CCCN5C(=O)[C@@H](C(C)C)N(C)C)[nH]4)cc3)cc2)[nH]1)C(C)C [Compound 954] | 1 to 9.9 nM |
| COC(=O)N[C@H](C(=O)N1CCC[C@H]1c1ncc(-c2ccc(C#Cc3ccc(-c4cnc([C@@H]5CCCN5C(=O)[C@@H](Nc5cccnc5)C(C)C)[nH]4)cc3)cc2)[nH]1)C(C)C [Compound 995] | < 1 nM |
| COC(=O)N[C@H](C(=O)N1CCC[C@H]1c1ncc(-c2ccc(C#Cc3ccc(-c4cnc([C@@H]5CCCN5C(=O)[C@@H](c5ccccc5)N5CCOC5=O)[nH]4)cc3)cc2)[nH]1)C(C)C [Compound 1007] | < 1 nM |
| COC(=O)N[C@@H](C(=O)N1CCC[C@H]1c1ncc(-c2ccc(C#Cc3ccc(C(=O)NC[C@@H]4CCCN4C(=O)[C@H](NC(=O)N4CCOCC4)c4ccccc4)cc3)cc2)[nH]1)c1ccccc1 [Compound 235] | < 1 nM |
| O=C(N[C@@H](C(=O)N1CCC[C@H]1c1ncc(C#Cc2ccc(-c3ccc(-c4cnc([C@@H]5CCCN5C(=O)[C@H](NC(=O)N5CC[C@@H](O)C5)c5ccccc5)[nH]4)cc3)cc2)[nH]1)c1ccccc1)N1CC[C@@H](O)C1 [Compound 763] | < 1 nM |
| COC(=O)N[C@@H](C(=O)N1CCC[C@H]1c1ncc(-c2ccc(C#Cc3ccc(-c4cnc([C@@H]5CCCN5C(=O)[C@H](NC(=O)N5CCC[C@@H](O)C5)c5ccccc5)[nH]4)cc3)cc2)[nH]1)c1ccccc1 [Compound 264] | < 1 nM |
| COC[C@@H]1CCCN1C(=O)N[C@@H](C(=O)N1CCC[C@H]1c1ncc(-c2ccc(C#Cc3ccc(-c4cnc([C@@H]5CCCN5C(=O)[C@H](NC(=O)OC)c5ccccc5)[nH]4)cc3)cc2)[nH]1)c1ccccc1 [Compound 260] | < 1 nM |
| COC(=O)N[C@H](C(=O)N1CCOC[C@H]1c1ncc(-c2ccc(C#Cc3ccc4nc([C@@H]5CCCN5C(=O)[C@@H](NC(=O)OC)C(C)C)[nH]c4c3)cc2)[nH]1)C(C)C [Compound 1027] | < 1 nM |
| C[C@@H](NC(=O)[C@@H]1CCCN1C(=O)[C@H](NC(=O)OC(C)(C)C)c1ccccc1)c1ccc(C#Cc2cnc([C@@H]3CCCN3C(=O)[C@H](NC(=O)OC(C)(C)C)c3ccccc3)[nH]2)cc1 [Compound 129] | 10 to 999 nM |
| COC(=O)N[C@@H](C(=O)N1CCC[C@H]1c1ncc(-c2ccc(C#Cc3ccc(-c4cnc([C@@H]5CCCN5C(=O)[C@H](NC(=O)OC)c5ccccc5)[nH]4)c(F)c3)cc2)[nH]1)c1ccccc1 [Compound 1013] | < 1 nM |
| CNC(=O)N[C@@H](C(=O)N1CCC[C@H]1c1ncc(C#Cc2ccc(C#Cc3cnc([C@@H]4CCCN4C(=O)[C@H](NC(=O)NC)c4ccccc4)[nH]3)cc2)[nH]1)c1ccccc1 [Compound 307] | < 1 nM |
| COC(=O)N[C@H](C(=O)N1CCC[C@H]1c1ncc(-c2ccc(C#Cc3ccc(-c4cnc([C@@H]5CCCN5C(=O)[C@H](NC(=O)N5CC[C@H](O)C5)c5ccccc5)[nH]4)cc3)cc2)[nH]1)C(C)C [Compound 974] | < 1 nM |
| O=C(N[C@@H](C(=O)N1CCC[C@H]1c1ncc(-c2ccc(C#Cc3ccc(-c4cnc([C@@H]5CCCN5C(=O)[C@@H](c5ccccc5)N5CCCCC5)[nH]4)cc3)cc2)[nH]1)c1ccccc1)N1CCOCC1 [Compound 209] | < 1 nM |
| COC(=O)N[C@H](C(=O)N1CCC[C@H]1c1nc2ccc3cc(C#Cc4ccc(-c5cnc([C@@H]6CCCN6C(=O)[C@H](NC(=O)OC)c6ccccc6)[nH]5)cc4F)ccc3c2[nH]1)C(C)C [Compound 1100] | < 1 nM |
| COC(=O)N[C@H](C(=O)N1CCC[C@H]1c1ncc(-c2ccc(C#Cc3ccc4nc([C@@H]5CCCN5C(=O)[C@@H](NC(=O)OC)[C@H](C)O)[nH]c4c3)cc2)[nH]1)[C@H](C)O [Compound 1031] | < 1 nM |
| O=C(N[C@@H](C(=O)N1CCC[C@H]1c1ncc(C#Cc2ccc(-c3ccc(-c4cnc([C@@H]5CCCN5C(=O)[C@H](NC(=O)N5CC[C@H](O)C5)c5ccccc5)[nH]4)cc3)cc2)[nH]1)c1ccccc1)N1CC[C@H](O)C1 [Compound 762] | < 1 nM |

| SMILES | EC50 |
| --- | --- |
| COC(=O)N[C@@H](C(=O)N1CCC[C@H]1c1ncc(C#Cc2ccc(-c3cnc([C@@H]4CCCN4C(=O)[C@@H](c4ccccc4)N(C)C)[nH]3)cc2)[nH]1)c1ccccc1 [Compound 123] | < 1 nM |
| COC(=O)N[C@@H](C(=O)N1CCC[C@H]1c1ncc(-c2ccc(C#Cc3ccc(-c4cnc([C@@H]5CCCN5C(=O)[C@H]5CCCN5C)[nH]4)cc3)cc2)[nH]1)c1ccccc1 [Compound 187] | < 1 nM |
| C[C@@H](NC(=O)[C@@H]1CCCN1C(=O)[C@H](NC(=O)C1CC1)c1ccccc1)c1ccc(C#Cc2ccc(-c3cnc([C@@H]4CCCN4C(=O)[C@H](NC(=O)C4CC4)c4ccccc4)[nH]3)cc2)cc1 [Compound 168] | < 1 nM |
| COC(=O)N[C@H](C(=O)N1CCC[C@H]1c1ncc(-c2ccc(C#Cc3ccc4nc([C@@H]5CCCN5C(=O)[C@@H](NC(=O)OC)C5CCOCC5)[nH]c4c3)cc2F)[nH]1)C1CCOCC1 [Compound 1070] | < 1 nM |
| O=C(N[C@@H](C(=O)N1CCC[C@H]1C(=O)NCc1ccc(C#Cc2cnc([C@@H]3CCCN3C(=O)[C@H](NC(=O)C3CC3)c3ccccc3)[nH]2)cc1)c1ccccc1)C1CC1 [Compound 121] | < 1 nM |
| COC(=O)N[C@H](C(=O)N1CCC[C@H]1c1ncc(-c2ccc(C#Cc3ccc4nc([C@@H]5CCCN5C(=O)[C@@H](NC(=O)OC)[C@@H](C)OC)[nH]c4c3)cc2)[nH]1)[C@@H](C)OC [Compound 862] | < 1 nM |
| C[C@H](NC(=O)[C@@H]1CCCN1C(=O)[C@H](NC(=O)OC(C)(C)C)c1ccccc1)c1ccc(C#Cc2ccc(-c3cnc([C@@H]4CCCN4C(=O)[C@H](NC(=O)OC(C)(C)C)c4ccccc4)[nH]3)cc2)cc1 [Compound 169] | 1 to 9.9 nM |
| COC(=O)N[C@H](C(=O)N1CCC[C@H]1c1ncc(-c2ccc(C#Cc3ccc4c(c3)CCCc3nc([C@@H]5CCCN5C(=O)[C@@H](NC(=O)OC)C(C)C)[nH]c3-4)cc2)[nH]1)C(C)C [Compound 1096] | < 1 nM |
| O=C(N[C@@H](C(=O)N1CCC[C@H]1c1ncc(-c2ccc(C#Cc3ccc(-c4cnc([C@@H]5CCCN5C(=O)[C@H](NC(=O)N5CCOCC5)c5ccccc5)[nH]4)cc3)cc2)[nH]1)c1ccccc1)N1CCOCC1 [Compound 248] | < 1 nM |
| COC(=O)N[C@H](C(=O)N1CCC[C@H]1c1ncc(-c2ccc(C#Cc3ccc(-c4cnc([C@@H]5CCCN5C(=O)[C@@H](NC5CCOCC5)C(C)C)[nH]4)cc3)cc2)[nH]1)C(C)C [Compound 1001] | 1 to 9.9 nM |
| CC(C)[C@H](NC(=O)[C@H](NC(=O)OC(C)(C)C)c1ccccc1)c1ncc(-c2ccc(C#Cc3ccc(-c4cnc([C@@H]5CCCN5C(=O)[C@H](NC(=O)OC(C)(C)C)c5ccccc5)[nH]4)cc3)cc2)[nH]1 [Compound 281] | 1 to 9.9 nM |
| CC(C)[C@@H](C(=O)N1CCC[C@H]1c1ncc(-c2ccc(C#Cc3ccc4nc([C@@H]5CCCN5C(=O)[C@H](C(C)C)N5CCOC5=O)[nH]c4c3)cc2)[nH]1)N1CCOC1=O [Compound 1039] | 1 to 9.9 nM |
| C[C@@H](c1ncc(-c2ccc(C#Cc3ccc(-c4cnc([C@@H]5CCCN5C(=O)[C@H](NC(=O)OC(C)(C)C)c5ccccc5)[nH]4)cc3)cc2)[nH]1)N(C)C(=O)[C@H](NC(=O)OC(C)(C)C)c1ccccc1 [Compound 265] | < 1 nM |
| COC(=O)N[C@H](C(=O)N1CCC[C@H]1c1ncc(-c2cc(C)c(C#Cc3ccc4nc([C@@H]5CCCN5C(=O)[C@@H](NC(=O)OC)C(C)C)[nH]c4c3)c(C)c2)[nH]1)C(C)C [Compound 1060] | < 1 nM |
| COC(=O)N[C@@H](C(=O)N1CCC[C@H]1c1ncc(-c2ccc(C#Cc3ccc(-c4cnc([C@@H]5CCCN5C(=O)OCc5ccccc5)[nH]4)cc3)cc2)[nH]1)c1ccccc1 [Compound 200] | < 1 nM |
| COC(=O)N[C@@H](C(=O)N1CCC[C@H]1c1ncc(-c2ccc(C#Cc3ccc(-c4cnc([C@@H]5CCCN5C(=O)[C@H](NC(=O)N5CC[C@H](OC)C5)c5ccccc5)[nH]4)cc3)cc2)[nH]1)c1ccccc1 [Compound 272] | < 1 nM |
| CC(C)(C)OC(=O)N[C@@H](C(=O)N1CCC[C@H]1c1ncc(C#Cc2ccc(-c3ccc(-c4cnc([C@@H]5CCCN5C(=O)[C@H](NC(=O)OC(C)(C)C)c5ccccc5)[nH]4)cc3)cc2)[nH]1)c1ccccc1 [Compound 757] | < 1 nM |
| O=C(N[C@@H](C(=O)N1CCC[C@H]1c1nc(-c2ccc3cc(C#Cc4cnc([C@@H]5CCCN5C(=O)[C@H](NC(=O)N5CC[C@H](O)C5)c5ccccc5)[nH]4)ccc3c2)c[nH]1)c1ccccc1)N1CC[C@H](O)C1 [Compound 806] | 1 to 9.9 nM |
| CN(C)C(=O)N[C@@H](C(=O)N1CCC[C@H]1c1ncc(C#Cc2ccc(C#Cc3cnc([C@@H]4CCCN4C(=O)[C@H](NC(=O)N(C)C)c4ccccc4)[nH]3)cc2)[nH]1)c1ccccc1 [Compound 308] | < 1 nM |
| COC(=O)N[C@H](C(=O)N1CCC[C@H]1c1ncc(C#Cc2ccc(-c3ccc4nc([C@@H]5CCCN5C(=O)[C@@H](NC(=O)OC)C(C)C)[nH]c4c3)nc2)[nH]1)C(C)C [Compound 1086] | < 1 nM |
